Reference: patent publication US20260285924A1, “PEPTIDE THERAPEUTICS” (priority 2023, published 2026)

Key:
[1] = system: A-to-I RNA editing reporter (ADAR) in A375; assay: A-to-I PepTile (REPTILE) screen: A-to-I editing of dsRNA hairpin reporter by NGS; format: cell-based, human; details: for % A-to-I editing (IFNα): IFNα 6000 U/ml for 48 hours; for % A-to-I editing (Basal): no treatment
From the text: (§1) FIGS. 12A-12D. A-to-I PepTile screen. (A) Composition of A-to-I PepTile linrary screen, and schematic description of the lentiviral expression vector. (B) Experimental workflow. A375 cells were transduced at low MOI, and then treated or not with IFNα for 48 hrs. RNA was extracted and Peptide_ADARreporter RNA species were amplified and sequenced by NGS. (C) Dot plot of A-to-I PepTile library effect on A-to-I editing with or without IFNα treatment. Red line is the mean A-to-I editing of all the 8088 peptides (>100 read counts) no treatment: 25.75% IFNα: 37.6%. (D) Dot plot of A-to-I PepTile library fitness effect upon IFNα for 48 hrs.
FIGS. 17A-17F show A-to-I RNA Editing PiTile (REPTILE) screen in A375. (A) A-to-I RNA Editing PiTile (REPTILE) library design consist of fragmentation of all known ADAR1, ADAR2 interactors and all human double stranded RNA-binding protein into 40 amino acid long peptide. This library was then cloned into a lentivirus vector that also encode a DNA-encoded RNA loop reporter (A-to-I Rep) that is edited by ADAR proteins in cells at the RNA level. When the construct is expressed, the RNA loop gets edited on a single Adenosine, while the 40-mer peptide get expressed at the protein level. Then we can measure the impact of the peptide expression on the editing rate of the RNA loop reporter by sequencing (NGS and Sanger). (B) Experimental workflow of REPTILE screen in A375 cell line. Cells were transduced with the REPTILE library, and then treated for 48 hours with IFNα. Following the treatment, RNA was harvested, converted into cDNA and amplicon library containing peptide Identity (barcode) linked to the RNA loop reporter were prepared for NGS. (C) Result of the A375 REPTILE screen in the no treatment condition. Each dot represents a unique peptide that is associated with an A-to-I editing rate that was measured on the RNA loop. (D) Result of the A375 REPTILE screen in the IFNα condition. Each dot represents a unique peptide that is associated with an A-to-I editing rate that was measured on the RNA loop. Red line represent the A-to-I editing mean, Dash blue line represent 2 times the standard deviation of the % A-to-I editing across all the datasets. This cutoff was used to defined peptides hits that modulate RNA A-to-I editing. (E) Peptide A-to-I Inhibitor Hits intersection between no treatment (% A-to-I editing<15%) and IFNα (% A-to-I editing<27%) conditions. (F) Peptide A-to-I Enhancers Hits intersection between no treatment (% A-to-I editing>36%) and IFNα (% A-to-I editing>47%) conditions.
Provided herein is a screening methodology to measure the effect of small peptide on A-to-I RNA editing in situ and screen thousands of peptides in a single experiment. First, a library of peptides with the potential of impairing A-to-I editing was designed and built. ADAR enzymes edit RNA only on double-stranded RNA structures and via ADAR's double stranded RNA-Binding Domain (dsRBD). […] The A-to-I PepTile library is composed of 19 Human proteins having dsRBD and 34 known protein-protein interactors of ADAR1/2. All these proteins were tiled into 40-mer peptides every 4 amino acids (FIG. 12A). To measure A-to-I editing, a biosensor consisting of a 71 bp dsRNA hairpin structure that gets A-to-I edited at a rate of 25% in A375 melanoma cells, and ~37% upon IFNα treatment was used. This A-to-I editing reporter is fused with DNA sequence encoding for a peptide from the A-to-I PepTile library. The A-to-I PepTile plasmid pool (10304 elements) was used to produced lentiviruses and transduced A375 cells at a low multiplicity of infection (MOI) (FIG. 12B). A part of the infected cells was treated with IFNα at 6000 U/ml for 48 hours, and then bulk RNA of the basal and treated condition was harvested. RNA was then retrotranscribed into cDNA and sequenced by Next-Generation Sequencing (NGS). […]

A375 cells = assay: A-to-I PepTile screen: fitness effect upon IFNα (PepTile abundance untreated vs treated); format: cell-based, human
From the text: as §1
Provided herein is a screening methodology to measure the effect of small peptide on A-to-I RNA editing in situ and screen thousands of peptides in a single experiment. First, a library of peptides with the potential of impairing A-to-I editing was designed and built. ADAR enzymes edit RNA only on double-stranded RNA structures and via ADAR's double stranded RNA-Binding Domain (dsRBD). […] The A-to-I PepTile library is composed of 19 Human proteins having dsRBD and 34 known protein-protein interactors of ADAR1/2. All these proteins were tiled into 40-mer peptides every 4 amino acids (FIG. 12A). To measure A-to-I editing, a biosensor consisting of a 71 bp dsRNA hairpin structure that gets A-to-I edited at a rate of 25% in A375 melanoma cells, and ~37% upon IFNα treatment was used. This A-to-I editing reporter is fused with DNA sequence encoding for a peptide from the A-to-I PepTile library. The A-to-I PepTile plasmid pool (10304 elements) was used to produced lentiviruses and transduced A375 cells at a low multiplicity of infection (MOI) (FIG. 12B). A part of the infected cells was treated with IFNα at 6000 U/ml for 48 hours, and then bulk RNA of the basal and treated condition was harvested. RNA was then retrotranscribed into cDNA and sequenced by Next-Generation Sequencing (NGS). With the sequencing data, the A-to-I editing percentage of the RNA reporter for each PepTile is calculated since both elements are encoded on the same transcript. Moreover, with this screen one can also measure the abundance of the PepTiles between the untreated and treated conditions and determine Fitness score associated to every PepTile. To ensure a robust and more accurate A-to-I editing % estimation a cut-off of 100 read counts was set for each PepTile. […] SEQ ID NOs: 2125-2147 are A-to-I peptide inhibitors and SEQ ID NOs: 2148-2210 are A-to-I activators. In addition, 117 PepTiles were identified that either synergize (SEQ ID NOs: 2211-2243) or protect (SEQ ID NOs: 2244-2327) to IFNα-induced cell death (FIG. 12D and Table 5). These PepTiles are potential new therapeutic agents that can modulate the Interferon pathway. They may be beneficial in treating inflammatory conditions and may also enhance the effectiveness of cancer immunotherapy through synergistic effects.

[2] = IFNα 6000 U/ml for 48 hours vs untreated
[3] = A375, PepTile abundance upon IFNα treatment, negative = synthetic lethal, positive = protector

Sequence	% A-to-I editing (IFNα) [1] [%]	% A-to-I editing (Basal) [1] [%]	Fitness Score IFNα (A375 cells; [2])	Fitness Score IFNα (A375 cells; [3])
MRNAEFLTCNIPTSNASNNMVTTEKVENGQEPVIKLENRQE [ADAR_97]	51.11	40.12	-1.27	
MRPFQALPREQSPPPPLQTSSGAEVMDVGSGGDGQSELPAE [DGCR8_7]	54.04	40.23	0.13	
MRRDHQLREAPDTAEKAKSHLEVPLEENVNRRVLEEGSVEA [CCDC124_27]	24.35	12.18	1.71	
MSELNQKRPQYIKAKENTSHKIKKLEAAKKSLQNAQKHYKK [SMC1A_73]	23.54	11.31	-0.76	
MSESGNSARSSGISSQNSSTSDGDRSVSSQSSSSVSSQVTT [CDKN2AIP_47]	26.81	14.82	-1.31	
MSGTSYSGYEAAVYSAASSYYQQQQQQQKQAAAAAAAAAAT [ZFR_66]	49.01	40.81	2.04	2.04
MSILARLDMQRGVHGRLMDNSTSVREAAVELLGRFVLCRPQ [NIPBL_452]	50.76	38.35	2.31	2.31
MSKVTRAQIEDTLRRDHQLREAPDTAEKAKSHLEVPLEENV [CCDC124_24]	13.63	12.50	-1.31	
MSLLTGLSDSQVRAFRHTSTLAAMKLMTALVNVALNLSIHQ [STAG1_52]	58.66	46.34	-0.26	
MSQHRKKEADSVYGEWVPVEKNGEENKDDDNVFSSNLPSEP [SON_53]	25.27	14.38	1.03	
MSQVRAFRHTSTLAAMKLMTALVNVALNLSIHQDNTQRQYE [STAG1_54]	54.81	43.52	0.28	
MVEKAVSSAAGPLGPGDAVRRVLECVATGTLLTDGPGLQDP [ZFR2_205]	54.50	45.00	0.12	
MVGEYSNLEVNASWTKERWNQEFTKHQVLIMTCYVALNVLK [DICER1_31]	48.57	37.36	0.94	
MVISTFKKRAVEITGAGPGASSVCNSAPGSGPSSPNSSHST [HDAC5_73]	63.84	49.71	0.74	
MVMNLLESAGFSRSNPYYIVKQGKINQMATAPDSQRLKLLR [SMC3_31]	54.66	41.67	1.72	
